Source: the NIST ThermoML archive (doi:10.1016/j.jct.2017.08.029)
Numbers after ± are expanded uncertainties.

Assay: wn = mass fraction of the nth substance listed
Settings: 100 kPa, Liquid, Direct current cell with electrodes

For `C=CC[P+](c1ccccc1)(c1ccccc1)c1ccccc1.[Br-]` [allyltriphenylphosphonium bromide] + OCCOCCO, the electrical conductivity (293.15 K, w1 = 0.1842) was 0.0997 ± 0.028 S/m, the electrical conductivity (293.15 K, w1 = 0.2653) was 0.118 ± 0.034 S/m and the electrical conductivity (293.15 K, w1 = 0.4745) was 0.137 ± 0.039 S/m. The electrical conductivity (303.15 K, w1 = 0.1842) was 0.115 ± 0.033 S/m, the electrical conductivity (303.15 K, w1 = 0.2653) was 0.129 ± 0.037 S/m and the electrical conductivity (303.15 K, w1 = 0.4745) was 0.148 ± 0.042 S/m. For the same compound, the electrical conductivity (313.15 K, w1 = 0.1842) was 0.14 ± 0.04 S/m, the electrical conductivity (313.15 K, w1 = 0.2653) was 0.159 ± 0.045 S/m and the electrical conductivity (313.15 K, w1 = 0.4745) was 0.177 ± 0.05 S/m. The electrical conductivity (323.15 K, w1 = 0.1842) was 0.175 ± 0.05 S/m, the electrical conductivity (323.15 K, w1 = 0.2653) was 0.198 ± 0.056 S/m and the electrical conductivity (323.15 K, w1 = 0.4745) was 0.222 ± 0.063 S/m. It also gave an electrical conductivity (333.15 K, w1 = 0.1842) of 0.224 ± 0.064 S/m, an electrical conductivity (333.15 K, w1 = 0.2653) of 0.253 ± 0.072 S/m and an electrical conductivity (333.15 K, w1 = 0.4745) of 0.274 ± 0.078 S/m. For the same compound, the electrical conductivity (343.15 K, w1 = 0.1842) was 0.279 ± 0.079 S/m, the electrical conductivity (343.15 K, w1 = 0.2653) was 0.315 ± 0.089 S/m and the electrical conductivity (343.15 K, w1 = 0.4745) was 0.339 ± 0.096 S/m.
`C=CC[P+](c1ccccc1)(c1ccccc1)c1ccccc1.[Br-]` [allyltriphenylphosphonium bromide] + OCCOCCOCCO gave an electrical conductivity (293.15 K, w1 = 0.1375) of 0.037 ± 0.011 S/m, an electrical conductivity (293.15 K, w1 = 0.2033) of 0.0477 ± 0.014 S/m and an electrical conductivity (293.15 K, w1 = 0.3895) of 0.067 ± 0.019 S/m. For the same compound, the electrical conductivity (303.15 K, w1 = 0.1375) was 0.0441 ± 0.013 S/m, the electrical conductivity (303.15 K, w1 = 0.2033) was 0.0632 ± 0.018 S/m and the electrical conductivity (303.15 K, w1 = 0.3895) was 0.0805 ± 0.023 S/m. It also gave an electrical conductivity (313.15 K, w1 = 0.1375) of 0.0643 ± 0.018 S/m, an electrical conductivity (313.15 K, w1 = 0.2033) of 0.0905 ± 0.026 S/m and an electrical conductivity (313.15 K, w1 = 0.3895) of 0.112 ± 0.032 S/m. For the same compound, the electrical conductivity (323.15 K, w1 = 0.1375) was 0.0881 ± 0.025 S/m, the electrical conductivity (323.15 K, w1 = 0.2033) was 0.118 ± 0.034 S/m and the electrical conductivity (323.15 K, w1 = 0.3895) was 0.147 ± 0.042 S/m. It also gave an electrical conductivity (333.15 K, w1 = 0.1375) of 0.116 ± 0.033 S/m, an electrical conductivity (333.15 K, w1 = 0.2033) of 0.155 ± 0.044 S/m and an electrical conductivity (333.15 K, w1 = 0.3895) of 0.193 ± 0.055 S/m. The electrical conductivity (343.15 K, w1 = 0.1375) was 0.149 ± 0.043 S/m, the electrical conductivity (343.15 K, w1 = 0.2033) was 0.208 ± 0.059 S/m and the electrical conductivity (343.15 K, w1 = 0.3895) was 0.244 ± 0.069 S/m.
